Experimental data: patent US20260021046A1, “LIPID NANOPARTICLE AND PHARMACEUTICAL COMPOSITION” (NATIONAL UNIVERSITY CORPORATION HOKKAIDO UNIVERSITY, priority 2022, published 2026)

Experiments:
normal mice = assay: Biological safety in normal mice (serum markers, histopathology); assay type: in vivo; details: CL15A6 lipid nanoparticles with EGFP mRNA, 2 mg/kg RNA iv, 24 hours
Experimental: In order to exclude the effects of liver fibrosis on hepatic function and tissues, the biosafety of the lipid nanoparticle prepared by using CL15A6 was evaluated in normal mice. Lipid nanoparticles containing EGFP mRNA were administered intravenously to mice at an amount of 2 mg/kg RNA per kg body weight. Twenty-four hours after the administration, the mice were euthanized, and serum and major organs were collected and analyzed in comparison with control mice treated with HEPES buffer. Aspartate transaminase (AST), alanine aminotransferase (ALT), and creatinine (CRE), which are functional markers of the liver or kidney, in plasma were colorimetrically quantified using a commercially available kit (Sigma-Aldrich), and the results were compared. In addition, the collected organs were fixed, stained with hematoxylin and eosin, and histopathologically evaluated as described in NPL 17. • [NPL 17] Mahmoud A. Younis, et al., “Ultra-small lipid nanoparticles encapsulating sorafenib and midkine-siRNA selectively-eradicate sorafenib-resistant hepatocellular carcinoma in vivo”, J Control Release, Vol. 331, pp. 335-349

[1] = Average particle size, PDI, zeta potential (dynamic light scattering) and RNA encapsulation efficiency (RiboGreen) of lipid nanoparticles; assay type: physicochemical
Experimental: The average particle size, particle size distribution, and zeta potential of the lipid nanoparticles were measured using a Zetasizer Nano ZS (Malvern Instruments Ltd, UK) by dynamic light scattering and the form of lipid nanoparticle was measured using a transmission electron-microscope as described in NPL 12. The efficiency of mRNA encapsulation was estimated by RiboGreen fluorometry as described in NPL 13. Although the respective values vary depending on the type of pH-sensitive cationic lipid, the composition of the lipids constituting the lipid nanoparticles, the preparation conditions of the lipid nanoparticles, and the like, the average particle size of the lipid nanoparticles was in the range of 80 to 350 nm, the PDI was in the range of 0.05 to 0.4, the zeta potential was in the range of −16 to +5 mV, and the efficiency of mRNA encapsulation was 75 to 95%. • [NPL 12] Mahmoud A. Younis, et al., “A Multifunctional Lipid-Based Nanodevice for the Highly Specific Codelivery of Sorafenib and Midkine siRNA to Hepatic Cancer Cells”, Molecular Pharmaceutics, Vol. 16, pp. 4031-4044 • [NPL 13] Mahmoud M. Abd Elwakil, et al., “Engineered &-decalactone lipomers bypass the liver to selectively in vivo deliver mRNA to the lungs without targeting ligands”, Materials Horizons, Vol. 8, pp. 2251-2259
The average particle size, particle size distribution, and zeta potential of the lipid nanoparticles were measured in the same manner as in Example 1 to estimate the efficiency of SMO-siRNA encapsulation. The relationship between the flow rate ratio of the aqueous phase to the organic phase, the average particle size, particle size distribution, zeta potential, and SMO-siRNA encapsulation efficiency of the lipid nanoparticles prepared at the same flow rate ratio when CL15H6 was used as the pH-sensitive cationic lipid is shown in Table 3 below. In the subsequent experiments, lipid nanoparticles were prepared at a ratio of 4:1 (aqueous phase: organic phase), which provided the highest encapsulation efficiency, the smallest average particle size, and the smallest PDI.

[2] = system: activated hepatic stellate cell line LX-2; assay: EGFP mRNA delivery and transfection screening by FACS; assay type: cell-based; details: LX-2 cells; EGFP mRNA lipid nanoparticles, 250 ng mRNA per well
Experimental: Fourteen types of lipid nanoparticles prepared were screened with activated hepatic stellate cell line LX-2 (Merck (Germany) and hepatocyte line FL83B (ATCC, USA).
Twenty-four hours prior to the experiment, cells were seeded in 6-well plates at 1×10^5 cells/well and incubated at 37° C. The medium was aspirated and the cells were washed with (−) PBS and then treated with lipid nanoparticles encapsulating EGFP mRNA (TriLink BioTechnologies, USA) in 1.5 ml of growth medium for 24 hours. The amount of mRNA per well was 250 ng. Cells were then washed with (−) PBS and incubated in fresh medium for an additional 21 hours. The median fluorescence intensity of EGFP and the percentage of transfected cells were evaluated by fluorescence activated cell sorting (FACS) using a flow cytometer (Cytoflex, Beckman Coulter, USA).

[3] = lipid nanoparticles CL15A6:DOPE:cholesterol:DMG-PEG2K 5:3:2:0.3

SMILES: CCCCC/C=C\C/C=C\CCCCCCCCC(O)(CCCCCCCC/C=C\C/C=C\CCCCC)CCCCOC(=O)C1CCN(C)CC1 [CL15A6, (14z,17z)-5-hydroxy-5-((9z,12z)-octadeca-9,12-dien-1-yl)tricosa-14,17-dien-1-yl 1-methylpiperidine-4-carboxylate]
- ALT (normal mice): no significant increases
- AST (normal mice): no significant increases
- CRE (normal mice): no significant increases
- histopathology of major organs (liver, lung, heart, and kidney) (normal mice): no signs of injury
- particle size ([1]; CL15A6 mRNA lipid nanoparticles, DMG-PEG2K 1.5 mol %): 100 nm
- Average particle size ([1]; CL15A6 mRNA lipid nanoparticles, N/P ratio increased from 4 to 8): 80 nm
- Average particle size [1, 3]: 80 nm
- PDI [1, 3]: < 0.1
- mRNA delivery efficiency (median fluorescence intensity of EGFP) [2]: high and promising
- transfection efficiency (percentage of transfected cells) [2]: promising
